Measured values reported in patent US20080003305A1, “PROCESS AND COMPOSITIONS FOR THE DISINFECTION OF WATERS” (BROMINE COMPOUNDS LIMITED, priority 1991, published 2008).

Tests used:
[1] = system: survivors in water taken from a citrus juice evaporator; test: Efficacy in water taken from a citrus juice evaporator; comparison to non-oxidizing biocides; format: cell-based; conditions: dose 30 mg/l
Description: Efficacy of NH4Cl+NaOCl in Water Taken from a Citrus Juice Evaporator; Comparison to Non-Oxidizing Biocides
Water demand: higher than 30 ppm of Cl2 (out of 30 ppm Cl2) within 60 minutes.
Concentration of stock solution (NH4Cl+NaOCl): 1000 ppm.
Algicol II is a quaternary ammonium salt.

[2] = system: MOs in starch sizing mixture; test: Efficacy of oxidizing and non-oxidizing biocides in a starch sizing mixture (paper industry); format: cell-based; conditions: 30 ppm active ingredient, 60° C.; for Surviving MOs after time (hours): 4: 4 hours; for Surviving MOs after time (hours): 28: 28 hours; for Surviving MOs after time (hours): 48: 48 hours; for Surviving MOs after time (hours): 72: 72 hours
Description: Efficacy of Oxidizing and Non-Oxidizing Biocides is a Starch Sizing Mixture (Paper Industry)
Efficacy was measured at 60° C.
NH4Br+NaOCl: stock concentration 0.1%.
Dosage: 30 ppm active ingredient.
Incubation temperature 60° C.

anaer. MOs = test: Efficacy in domestic waste containing a high concentration of amines: anaerobic MOs; format: cell-based; conditions: 60 ppm; contact time 10 minutes; N as NH3 50mg/l; pH 6.10
Description: (§1) Efficacy of a Series of Biocides in Domestic Waste Containing a High Concentration of Amines
(§2) Incubation temperature: 27° C.
(§3) Stock concentration: 0.2%

aerob. MOs = test: Efficacy in domestic waste containing a high concentration of amines: aerobic MOs; format: cell-based; conditions: 60 ppm; contact time 10 minutes; N as NH3 50mg/l; pH 6.10
Description: as §1, §2, §3

Pseudomonas sp. = test: Efficacy of biocides in the presence of anti-scale and corrosion inhibiting treatment (CWC); format: cell-based; conditions: dose 4 mg/l; pH 9.0; contact time 6 hours
From the text: Efficacy of Biocides in the Presence of Anti-Scale and Corrosion Inhibiting Treatment (CWC)
Stock concentration: 0.5% as Cl2
Efficacy against pseudomonas sp.

fungi = test: Efficacy in domestic waste containing a high concentration of amines: fungi; format: cell-based; conditions: 60 ppm; contact time 10 minutes; N as NH3 50mg/l; pH 6.10
Description: as §1, §2, §3

[3] = system: total aerobic viable counts; test: Efficacy of oxidizing biocides in water taken from a paper mill (thick stock of pulp slurry); format: cell-based; conditions: 15 mg/l as Cl2; 30 minutes
Description: Efficacy of Oxidizing Biocides in Water Taken from a Paper Mill (Thick Stock of Pulp Slurry)
Microorganisms were incubated at 37° C. (total aerobic viable counts).
Concentration of stock solution: 0.1% as Cl2.

[4] = Residue as Cl2 in domestic waste containing a high concentration of amines; format: physicochemical; conditions: 60 ppm
Description: as §1, §2, §3

Row | SMILES | Survivors after time (hours): 1 ([1]; 1 hour) | Survivors after time (hours): 24 ([1]; 24 hours) | Survivors after time: 7 days ([1]; 7 days) | Surviving MOs after time (hours): 4 [2] | Surviving MOs after time (hours): 28 [2] | Surviving MOs after time (hours): 48 [2] | Surviving MOs after time (hours): 72 [2] | Surviving MOs after 10 minutes anaer. (anaer. MOs) | Surviving MOs after 10 minutes aerob. (aerob. MOs) | Survivors in CWC (100 mg/l) (Pseudomonas sp.) | Survivors in buffer (Pseudomonas sp.) | Surviving MOs after 10 minutes fungi (fungi) [cfu/ml] | Viable counts after time (minutes): 30 [3] | Residue free as Cl2 after 10 minutes ([4]; free) | Residue (total) as Cl2 after 10 minutes ([4]; total)
1 | N#CSCSC#N [MBT] | 1 × 10^6 cfu/ml | 1 × 10^3 cfu/ml | 8 × 10^2 cfu/ml | 9 × 10^4 cfu/ml | 4 × 10^4 cfu/ml | 2 × 10^4 cfu/ml | 2 × 10^4 cfu/ml |  |  |  |  |  |  |  | 
2 | Cn1sccc1=O [MIT] |  |  |  | 2 × 10^4 cfu/ml | 2 × 10^3 cfu/ml | 2 × 10^3 cfu/ml | 1 × 10^3 cfu/ml |  |  |  |  |  |  |  | 
3 | N#CC(Br)(Br)C(N)=O [DBNPA] |  |  |  | 3 × 10^4 cfu/ml | 2 × 10^5 cfu/ml | 2 × 10^5 cfu/ml | 1 × 10^5 cfu/ml | 5 × 10^5 cfu/ml | 2 × 10^6 cfu/ml | 4 × 10^6 | 0 | 0 | 2 × 10^3 cfu/ml | 0 (0) | 0 (0)
